Consider two molecules from article PMC11016868 (Computational and Structural Biotechnology Journal, 2024).

Values after ≈ are worked out from the molar mass of the structure shown.

The assay has as its system M. marinum (NTUH-M6885). As to the kind of experiment: Minimum inhibitory concentration, broth microdilution. Format: cell-based. The note with it: Mycobacterium marinum, 7H9 broth, 28 °C. Background: Broth dilution looks for growth in wells or tubes with falling amounts of substance.

In general, MIC refers to the lowest concentration found to suppress growth. A lower MIC goes with inhibition by little substance. Take `O=C(O)c1cn(C2CC2)c2cc(N3CCNCC3)c(F)cc2c1=O` [ciprofloxacin]: the MIC came out at 8 µg/mL (≈ 24.1 µM).

As for `CO[C@H]1/C=C/O[C@@]2(C)Oc3c(C)c(O)c4c(O)c(c(/C=N/N5CCN(C)CC5)c(O)c4c3C2=O)NC(=O)/C(C)=C\C=C\[C@H](C)[C@H](O)[C@@H](C)[C@@H](O)[C@@H](C)[C@H](OC(C)=O)[C@@H]1C` [rifampicin], the MIC turned out to be 2 µg/mL (≈ 2.43 µM).
